From patent US12571052B2, “Immunomodulatory RNA” (THE TRUSTEES OF THE UNIVERSITY OF PENNSYLVANIA, priority 2017, dated 2026)

Assays:
[1] = system: 1833 breast cancer cells; assay: ISG expression in breast cancer cells after RNA transfection (qRT-PCR); type: cell-based, Human
Method: Gene Targeting and Expression. Gene knockdown by siRNA was completed using SMARTPool siRNAs (Thermo) and transfected using 20 nM siRNA and RNAiMax (Invitrogen) transfection reagent. For stable knockdowns, shRNAs were cloned into the pGIPZ vector and transduced by virus using pCMV-VSV-G and pHR8.2AR envelope and packaging vectors in HEK293T cells. Transduced cells were selected using 1-2 ug/ml of puromycin. Wild-type and K858A/K861A binding mutant of RIG-I was cloned into the pOZ-N vector. Transduced cells were then selected with IL-2 receptor magnetic beads and expression was confirmed by Western blot for FLAG, HA, and RIG-I. RIG-I restoration was functionally confirmed by RIG-I pathway activation in response to Sendai virus infection. SRP9 and SRP14 were transiently transfected with pGFH-9 (Addgene plasmid #39538) and pGFH-14c (Addgene plasmid #39541), both gifts from Katharina Strub. Gene knockout by CRISPR was accomplished using pSpCas9 (BB)-2A-GFP (PX458) (Addgene plasmid #48138). RIG-I was knocked out utilizing the protocol described (Ran et al. (2013) Nat. Protoc. 8, 2281-2308). In brief, two distinct guide RNAs cloned into the pSpCas9 (BB)-2A-GFP backbone were transiently transfected into breast cancer cells. After 48 hours, single cells were sorted into 96 well single cell clones based on highest GFP expression. Clones were confirmed to have no RIG-I expression by immunoblot and pooled. RIG-I KO in the pooled clones were functionally confirmed by RIG-I pathway activation in response to Sendai virus infection.
In Vitro Transcription. In vitro transcription was performed using of PCR amplified cDNA templates that contained Hepatitis Delta Virus Ribozyme to ensure homogenous 3′ ends of the transcripts of interest (Avis et al. (2012) Methods Mol. Biol. 941, 83-97). In vitro transcription was completed with the MEGAshortscript T7 Transcription Kit (ThermoFisher) according to manufacturer's instructions. RNA was DNase treated and phenol/chloroform purified. After thermocycling to ensure ribozyme cleavage, correct size transcripts were gel purified. […]

[2] = system: B16-F10 tumor cells; assay: B16-F10/MEF co-implantation, tumor growth and survival under checkpoint blockade; type: in vivo, C57BL/6 mice; conditions: MYC activated MEFs vs MEFs co-expressing SRP9/14; anti-CTLA-4 or anti-PD-1
Method: Wild type (WT) C57BL/6 mice were injected with 5×10^4 B16-F10 tumor cells subcutaneously in the flank with 5×10^4 MYC activated mouse embryonic fibroblasts (MEFs) or MYC activated MEFs co-expressing SRP9/14. MYC activation is inducible with 4-OHT and results in the secretion of exosomes containing unshielded 7SL1 RNA, while co-expression of SRP9/14 ensures the 7SL1 RNA remains relatively shielded, allowing measurement of the stimulatory capacity specifically of the unshielded form (Nabet B Y, et al. Cell. 2017; 170 (2): 352-366.e13). Mice were subsequently treated with the anti-CTLA-4 or anti-PD-1 antibody (or not), and then tumor growth was monitored by caliper. Endpoint criterion was considered a tumor measurement of 1.5 cm in any direction.
Tumors were implanted as described in FIGS. 25A-25B and treated with CSF1R inhibitor BLZ945 (Novartis) every 2 days for 2 weeks starting at day 0 to prevent M2 polarization of infiltrating myeloid cells. Mice were additionally treated with anti-CTLA4 (FIG. 27A) or anti-CTLA4 and anti-PD1 (FIGS. 27B and 27C) on days 5, 8, and 11. Tumor growth was monitored by caliper.

[3] = system: myeloid/dendritic cells in the spleen; assay: Spleen myeloid/dendritic cell activation after intravenous injection; type: in vivo, mice

Substance: RN7SL1: Human RN7SL1 (7SL, srpRNA) RNA, 5'ppp, in vitro transcribed or secreted unshielded in exosomes; SEQ ID NO: 2
- ISG induction after transfection ([1]; 1833 cells, RIG-I wild type): induces ISGs in breast cancer cells specifically in a RIG-I-dependent manner
- ISG induction after transfection ([1]; RIG-I KO cells with re-expression of WT RIG-I): restored antiviral signaling
- ISG induction after transfection ([1]; alkaline phosphatase treatment prior to transfection): abolished ISG induction
- response to checkpoint blockade therapy [2]: does not significantly impact response to anti-CTLA-4 or anti-PD-1 therapy
- myeloid/dendritic cell maturation and activation (MHCII+ and CD86+) [3]: promote immune cell activation in the neutral immune environment of mouse spleens
